The record followed here is PubChem BioAssay AID588540 (NMMLSC, 2011).

The source made the active and inactive calls.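 The calls were made as follows: active = viability below 80%, treated as toxic; inactive = the rest.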

In this test the test system is HEK-293 viability, CellTiter-Glo, 3 days. Description: HEK-293 cell cytotoxicity, late-stage follow-up, cytotoxicity control for GRK2 aptamer-displacement inhibitor project, powder set 1, set 2 (AID 588540). To be noted: at 20 µM; stronger effect = lower value.
One may read the viability as a read-out of living cells in per cent, often relative to untreated cells. As to `O=C(CCS(=O)(=O)c1ccc(Br)cc1)NCc1cccs1`, the viability is 131% (inactive).
On to `Cc1ccccc1NC(=O)CCS(=O)(=O)c1ccc(Br)s1`, for which the viability was 94.2% (inactive).
For `Cc1cc2ccccc2n1CCNC(=O)C(C)Oc1ccccc1` (stereo not drawn) the value was 68.6%; for `COC(=O)c1ccc(NC(=O)CCS(=O)(=O)c2ccc(Br)cc2)cc1`, 126% (inactive); for `Cc1ccc(CCNC(=O)CCS(=O)(=O)c2ccc(Br)cc2)cc1`, 126% (inactive).
Regarding `Cc1cccc(CCNC(=O)CCS(=O)(=O)c2ccc(Br)cc2)c1`, the viability was 129% (inactive).
As to `CC(=O)N1CCN(Cc2nc3cc(Cl)ccc3c(=O)[nH]2)CC1`, the viability was 124% (inactive).
With `COc1ccc([N+](=O)[O-])cc1NC(=O)CCS(=O)(=O)c1ccc(Br)cc1`, the viability was 118% (inactive).
Under `O=C(CCS(=O)(=O)c1ccc(Br)cc1)Nc1ccc(Br)cc1F` stands 116% (inactive).
In the case of `O=C(CSc1nc2ccccc2c(=O)n1-c1ccccc1)NC(=O)CN1CCCC1=O`, the viability is 116% (inactive).
On to `O=C(CCS(=O)(=O)c1ccc(Br)s1)Nc1ccccc1Br`, for which the viability was 71.3%.
On to `O=C(CN1CCc2ccccc21)NC(=O)NCc1ccccc1`, for which the viability is 56.1%.
For the compound `CCN(CC)c1ccc(NC(=O)CCS(=O)(=O)c2ccc(Br)cc2)c(C)c1`, the viability is 97.3% (inactive).
`C#CCSc1nc2sc3c(c2c(=O)n1C)CCC3`: the viability was 92.8% (inactive).
Consider `COc1ccc(Cl)cc1NC(=O)CCS(=O)(=O)c1ccc(Br)cc1`, for which the viability was 106% (inactive).
For the compound `CCOc1ccc(NC(=O)CCS(=O)(=O)c2ccc(Br)cc2)cc1`, the viability was 108% (inactive).
For `O=C(O)Cc1ccc(-n2cccc2)cc1`, the viability was 125% (inactive).
Turning to `CCOc1ccccc1NC(=O)CCS(=O)(=O)c1ccc(Br)cc1`, the viability was 79.5% (inactive).
Consider `COc1ccc(NC(=O)CCS(=O)(=O)c2ccc(Br)s2)cc1`, for which the viability was 86.8% (inactive).
`COC(=O)c1ccccc1NC(=O)CCS(=O)(=O)c1ccc(Br)s1`: the viability was 81.6% (inactive).
With `CC(CS(=O)(=O)c1ccc2c(c1)NC(=O)CS2)C(=O)NCc1ccccc1Cl` (stereo not drawn), the viability is 119% (inactive).
Consider `NS(=O)(=O)c1ccc(CCNC(=O)CCS(=O)(=O)c2ccc(Br)cc2)cc1`, for which the viability is 124% (inactive).
Under `COc1ccc(CCNC(=O)CCS(=O)(=O)c2ccc(Br)cc2)cc1OC` stands 120% (inactive).
